Results: US10004701B2, “Methods and compositions for treating infection” (UNIVERSITY OF ROCHESTER, priority 2012, dated 2018)
Where a name gives a salt, the structure may show the parent alone. Read-outs that look alike come from different tables or passages of the source.

How the values were obtained:
Test in all cases: AK assay 384-well format, Prestwick library screening
E. cloacae = assay type: cell-based, Enterobacter cloacae; conditions: 50 μM final drug concentration; for fold induction at 50 µM: Enterobacter cloacae, 3 h
E. coli = assay type: cell-based, Escherichia coli; conditions: 50 μM final drug concentration; for fold induction at 50 µM: Escherichia coli, 3 h
E. faecium = assay type: cell-based, Enterococcus faecium; conditions: 50 μM final drug concentration; for fold induction at 50 µM: Enterococcus faecium, 3 h
[1] = system: S. aureus strain USA300-0114; assay type: cell-based, Staphylococcus aureus; conditions: 50 μM final drug concentration; for fold induction at 50 µM: Staphylococcus aureus, USA300, 3 h
[2] = system: A. baumannii strain 98-37-09; assay type: cell-based, Acinetobacter baumannii; conditions: 50 μM final drug concentration; for fold induction at 50 µM: Acinetobacter baumannii, 983709, 3 h
P. aeruginosa = assay type: cell-based, Pseudomonas aeruginosa; conditions: 50 μM final drug concentration; for fold induction at 50 µM: Pseudomonas aeruginosa, 3 h
K. pneumoniae = assay type: cell-based, Klebsiella pneumoniae; conditions: 50 μM final drug concentration; for fold induction at 50 µM: Klebsiella pneumoniae, 3 h
[3] = planktonic, cutoff for positive 3-fold increase, read-out: AK-based Prestwick Library Screening Results, E. cloacae (fold increase in extracellular AK activity)
[4] = planktonic, cutoff for positive 3-fold increase, read-out: AK-based Prestwick Library Screening Results, E. coli (fold increase in extracellular AK activity)
[5] = planktonic, cutoff for positive 3-fold increase, read-out: AK-based Prestwick Library Screening Results, E. faecium (fold increase in extracellular AK activity)
[6] = planktonic, cutoff for positive 3-fold increase, read-out: AK-based Prestwick Library Screening Results, S. aureus (fold increase in extracellular AK activity)
[7] = planktonic, cutoff for positive 3-fold increase, read-out: AK-based Prestwick Library Screening Results, A. baumannii (fold increase in extracellular AK activity)
[8] = planktonic, cutoff for positive 3-fold increase, read-out: AK-based Prestwick Library Screening Results, P. aeruginosa (fold increase in extracellular AK activity)
[9] = planktonic, cutoff for positive 3-fold increase, read-out: AK-based Prestwick Library Screening Results, K. pneumoniae (fold increase in extracellular AK activity)
[10] = planktonic, cutoff for positive-scoring molecules 3-fold increase, read-out: AK-based Prestwick Library Screening Results, E. cloacae (fold increase in extracellular AK activity)
[11] = planktonic, cutoff for positive-scoring molecules 3-fold increase, read-out: AK-based Prestwick Library Screening Results, E. coli (fold increase in extracellular AK activity)
[12] = planktonic, cutoff for positive-scoring molecules 3-fold increase, read-out: AK-based Prestwick Library Screening Results, E. faecium (fold increase in extracellular AK activity)
[13] = planktonic, cutoff for positive-scoring molecules 3-fold increase, read-out: AK-based Prestwick Library Screening Results, S. aureus (fold increase in extracellular AK activity)
[14] = planktonic, cutoff for positive-scoring molecules 3-fold increase, read-out: AK-based Prestwick Library Screening Results, A. baumannii (fold increase in extracellular AK activity)
[15] = planktonic, cutoff for positive-scoring molecules 3-fold increase, read-out: AK-based Prestwick Library Screening Results, P. aeruginosa (fold increase in extracellular AK activity)
[16] = planktonic, cutoff for positive-scoring molecules 3-fold increase, read-out: AK-based Prestwick Library Screening Results, K. pneumoniae (fold increase in extracellular AK activity)
[17] = cutoff for positive-scoring molecules 3-fold increase

## Clc1cnccn1 [Compound 2-Chloropyrazine, 2-Chloropyrazine]
E. cloacae; planktonic E. cloacae, positive cutoff 3-fold increase, read-out: AK-based Prestwick library screening result, E. cloacae (fold increase in extracellular AK activity)
  fold induction at 50 µM: 1.4
E. coli; planktonic E. coli, positive cutoff 3-fold increase, read-out: AK-based Prestwick library screening result, E. coli (fold increase in extracellular AK activity)
  fold induction at 50 µM: 1
E. faecium; planktonic E. faecium, positive cutoff 3-fold increase, read-out: AK-based Prestwick library screening result, E. faecium (fold increase in extracellular AK activity)
  fold induction at 50 µM: 1.1
[1]; planktonic S. aureus, positive cutoff 3-fold increase, read-out: AK-based Prestwick library screening result, S. aureus (fold increase in extracellular AK activity)
  fold induction at 50 µM: 1.1
[2]; planktonic A. baumannii, positive cutoff 3-fold increase, read-out: AK-based Prestwick library screening result, A. baumannii (fold increase in extracellular AK activity)
  fold induction at 50 µM: 1.2
P. aeruginosa; planktonic P. aeruginosa, positive cutoff 3-fold increase, read-out: AK-based Prestwick library screening result, P. aeruginosa (fold increase in extracellular AK activity)
  fold induction at 50 µM: 1
K. pneumoniae; planktonic K. pneumoniae, positive cutoff 3-fold increase, read-out: AK-based Prestwick library screening result, K. pneumoniae (fold increase in extracellular AK activity)
  fold induction at 50 µM: 0.9

## CC[C@@H]1C(=O)OC[C@@H]1Cc1cncn1C [Pilocarpine nitrate]
E. cloacae; [3]
  fold induction at 50 µM: 1.5
E. coli; [4]
  fold induction at 50 µM: 1
E. faecium; [5]
  fold induction at 50 µM: 1.1
[1]; [6]
  fold induction at 50 µM: 1.3
[2]; [7]
  fold induction at 50 µM: 1
P. aeruginosa; [8]
  fold induction at 50 µM: 1
K. pneumoniae; [9]
  fold induction at 50 µM: 0.9

## CC[N+]1(C)CCCC(OC(=O)C(O)(c2ccccc2)c2ccccc2)C1 (stereo not shown) [Pipenzolate bromide]
E. cloacae; [10]
  fold induction at 50 µM: 0.9
E. coli; [11]
  fold induction at 50 µM: 0.9
E. faecium; [12]
  fold induction at 50 µM: 0.9
[1]; [13]
  fold induction at 50 µM: 0.8
[2]; [14]
  fold induction at 50 µM: 0.7
P. aeruginosa; [15]
  fold induction at 50 µM: 0.8
K. pneumoniae; [16]
  fold induction at 50 µM: 0.7

## C(#CCN1CCCC1)CN1CCCC1.Cl.Cl [Tremorine dihydrochloride]
E. cloacae; planktonic E. cloacae, […]
  AK-based Prestwick Library Screening Results, E. cloacae (increase in extracellular AK activity): 0.7
E. coli; planktonic E. coli, […]
  AK-based Prestwick Library Screening Results, E. coli (increase in extracellular AK activity): 0.7
E. faecium; planktonic E. faecium, […]
  AK-based Prestwick Library Screening Results, E. faecium (increase in extracellular AK activity): 1.0
[1]; planktonic S. aureus, […]
  AK-based Prestwick Library Screening Results, S. aureus (increase in extracellular AK activity): 0.5
[2]; planktonic A. baumannii, […]
  AK-based Prestwick Library Screening Results, A. baumannii (increase in extracellular AK activity): 0.7
P. aeruginosa; planktonic P. aeruginosa, […]
  AK-based Prestwick Library Screening Results, P. aeruginosa (increase in extracellular AK activity): 0.6
K. pneumoniae; planktonic K. pneumoniae, […]
  AK-based Prestwick Library Screening Results, K. pneumoniae (increase in extracellular AK activity): 0.6

## COC(=O)Nc1nc2ccc(SC(C)C)cc2[nH]1 [Methiazole]
E. cloacae; planktonic E. cloacae, positive cutoff 3-fold increase
  AK-based Prestwick library screening result, E. cloacae (fold increase in extracellular AK activity): 1.3
E. coli; planktonic E. coli, […]
  AK-based Prestwick library screening result, E. coli (fold increase in extracellular AK activity): 0.4
E. faecium; planktonic E. faecium, positive cutoff 3-fold increase
  AK-based Prestwick library screening result, E. faecium (fold increase in extracellular AK activity): 0.5
[1]; planktonic S. aureus, positive cutoff 3-fold increase
  AK-based Prestwick library screening result, S. aureus (fold increase in extracellular AK activity): 1.3
[2]; planktonic A. baumannii, positive cutoff 3-fold increase
  AK-based Prestwick library screening result, A. baumannii (fold increase in extracellular AK activity): 0.5
P. aeruginosa; planktonic P. aeruginosa, positive cutoff 3-fold increase
  AK-based Prestwick library screening result, P. aeruginosa (fold increase in extracellular AK activity): 0.5
K. pneumoniae; planktonic K. pneumoniae, positive cutoff 3-fold increase
  AK-based Prestwick library screening result, K. pneumoniae (fold increase in extracellular AK activity): 0.4

## NCCc1cc[nH]n1 [Betazole hydrochloride]
E. cloacae; 384-well format, cutoff for positive-scoring molecules 3-fold increase, read-out: AK-based Prestwick Library Screening Results, E. cloacae (increase in extracellular AK activity)
  fold induction at 50 µM: 1.4
E. coli; 384-well format, cutoff for positive-scoring molecules 3-fold increase, read-out: AK-based Prestwick Library Screening Results, E. coli (increase in extracellular AK activity)
  fold induction at 50 µM: 1.3
E. faecium; 384-well format, cutoff for positive-scoring molecules 3-fold increase, read-out: AK-based Prestwick Library Screening Results, E. faecium (increase in extracellular AK activity)
  fold induction at 50 µM: 1
[1]; 384-well format, cutoff for positive-scoring molecules 3-fold increase, read-out: AK-based Prestwick Library Screening Results, S. aureus (increase in extracellular AK activity)
  fold induction at 50 µM: 1.2
[2]; 384-well format, cutoff for positive-scoring molecules 3-fold increase, read-out: AK-based Prestwick Library Screening Results, A. baumannii (increase in extracellular AK activity)
  fold induction at 50 µM: 1.2
P. aeruginosa; 384-well format, cutoff for positive-scoring molecules 3-fold increase, read-out: AK-based Prestwick Library Screening Results, P. aeruginosa (increase in extracellular AK activity)
  fold induction at 50 µM: 1
K. pneumoniae; 384-well format, cutoff for positive-scoring molecules 3-fold increase, read-out: AK-based Prestwick Library Screening Results, K. pneumoniae (increase in extracellular AK activity)
  fold induction at 50 µM: 0.9

## COc1ccc2[nH]c3c(c2c1)CCN=C3C [Methoxy-6-harmalan]
E. cloacae; planktonic, […]
  AK-based Prestwick Library Screening Results, E. cloacae (fold increase in extracellular AK activity): 1.4
E. coli; planktonic, […]
  AK-based Prestwick Library Screening Results, E. coli (fold increase in extracellular AK activity): 1.4
E. faecium; planktonic, […]
  AK-based Prestwick Library Screening Results, E. faecium (fold increase in extracellular AK activity): 1.0
[1]; planktonic, […]
  AK-based Prestwick Library Screening Results, S. aureus (fold increase in extracellular AK activity): 0.8
[2]; planktonic, […]
  AK-based Prestwick Library Screening Results, A. baumannii (fold increase in extracellular AK activity): 1.3
P. aeruginosa; planktonic, […]
  AK-based Prestwick Library Screening Results, P. aeruginosa (fold increase in extracellular AK activity): 1.2
K. pneumoniae; planktonic, […]
  AK-based Prestwick Library Screening Results, K. pneumoniae (fold increase in extracellular AK activity): 1.0

## Nc1ncn([C@@H]2O[C@H](CO)[C@@H](O)[C@H]2O)c(=O)n1 [Azacytidine-5]
E. cloacae; [17]
  AK-based Prestwick Library Screening Results, E. cloacae (fold increase in extracellular AK activity): 1.5
E. coli; [17]
  AK-based Prestwick Library Screening Results, E. coli (fold increase in extracellular AK activity): 2.2
E. faecium; [17]
  AK-based Prestwick Library Screening Results, E. faecium (fold increase in extracellular AK activity): 1.0
[1]; [17]
  AK-based Prestwick Library Screening Results, S. aureus (fold increase in extracellular AK activity): 1.2
[2]; [17]
  AK-based Prestwick Library Screening Results, A. baumannii (fold increase in extracellular AK activity): 1.4
P. aeruginosa; [17]
  AK-based Prestwick Library Screening Results, P. aeruginosa (fold increase in extracellular AK activity): 1.2
K. pneumoniae; [17]
  AK-based Prestwick Library Screening Results, K. pneumoniae (fold increase in extracellular AK activity): 0.9

## Cc1cccc(C)c1NC(=O)CN1CCN(CCCC(c2ccc(F)cc2)c2ccc(F)cc2)CC1 [Lidoflazine]
E. cloacae; [3]
  fold induction at 50 µM: 1.4
E. coli; [4]
  fold induction at 50 µM: 1.4
E. faecium; [5]
  fold induction at 50 µM: 1
[1]; [6]
  fold induction at 50 µM: 1.4
[2]; [7]
  fold induction at 50 µM: 2.9
P. aeruginosa; [8]
  fold induction at 50 µM: 1.3
K. pneumoniae; [9]
  fold induction at 50 µM: 1.1

## CC(CN1c2ccccc2Sc2ccccc21)N(C)C (stereo not shown) [Promethazine hydrochloride]
E. cloacae; [10]
  fold induction at 50 µM: 0.5
E. coli; [11]
  fold induction at 50 µM: 0.6
E. faecium; [12]
  fold induction at 50 µM: 0.8
[1]; [13]
  fold induction at 50 µM: 0.5
[2]; [14]
  fold induction at 50 µM: 0.6
P. aeruginosa; [15]
  fold induction at 50 µM: 0.6
K. pneumoniae; [16]
  fold induction at 50 µM: 0.5
